From patent US8828401B2, “Cytotoxic peptides and antibody drug conjugates thereof” (Pfizer Inc., priority 2011, dated 2014) come the findings set out here.

Starred links: 1 amine or outer side, 2 acyl side, 3 side chain; linkers in the order of their positions; H or OH if unused. Non-standard residues stand in square brackets, D forms with d. Residues, ends and D or L forms follow the SMILES beside them. *: point of attachment. Dolaproine = CO[C@@H]([C@@H]1CCCN1)[C@@H](C)C(=O)O; X11 = O=C([C@@H](N[*:1])[C@H]1Cc2ccccc21)[*:2]; X2 = O=C([C@H](N[*:1])C1(c2ccccc2)CC1)[*:2]; Dil = CC[C@H](C)[C@H](NC)[C@@H](CC(=O)O)OC; Doe = c1ccc(C[C@H](N*)c2nccs2)cc1; d(αMeV) = CC(C)[C@@](C)(N)C(=O)O; d(αMeP) = C[C@]1(C(=O)O)CCCN1; αMeP = C[C@@]1(C(=O)O)CCCN1; X13 = c1ccc(C2(CN*)CC2)cc1; Iva = CC[C@](C)(N)C(=O)O; NMeAib = CNC(C)(C)C(=O)O; X4 = CN(C)C(C)(C)C(=O)*; X8 = C1=CC=CC(CCN*)C=C1; Ac3c = NC1(C(=O)O)CC1; Aib = CC(C)(N)C(=O)O; OAll = C=CCO*; NHPr = CCCN* Some results are limits rather than exact numbers.

What all share (assay): In vitro cell assay, MTS cell viability 96 hours after treatment
Assay type in all cases: cell-based

In one experiment the test system is BT474 (breast cancer). Particulars: Homo sapiens, BT-474, BT474 cells; geometric mean; cytotoxic peptides; read-out: BT474 GMEAN IC50. As for the experimental part: (§1) Cells were treated with 3-fold serially diluted antibody-drug conjugates or free compounds (i.e., no antibody conjugated to the drug) in duplicate at 10 concentrations. Cell viability was determined by CellTiter 96® AQueous One Solution Cell Proliferation MTS Assay (Promega, Madison Wis.) 96 hours after treatment. Relative cell viability was determined as percentage of untreated control.

The subject of the next experiment is N87 (gastric cancer). To be noted: read-out: N87 GMEAN IC50, N87 cells; geometric mean; cytotoxic peptides. The protocol:
as §1

Experiment [1] deals with MDA-MB-361-DYT2 (breast cancer). Particulars: read-out: MDA-MB-361-DYT2 GMEAN IC50, MDA-MB-361-DYT2 cells; geometric mean; cytotoxic peptides. The protocol:
as §1

For the molecule `CC[C@H](C)[C@@H]([C@@H](CC(=O)N1CCC[C@H]1[C@H](OC)[C@@H](C)C(=O)N[C@@H](Cc1ccccc1)C(=O)OC)OC)N(C)C(=O)[C@@H](NC(=O)[C@@]1(C)CCCCN1)C(C)C` (single isomer, unassigned) [#159], the IC50 was determined as 0.07 nM in the experiment on BT474 (breast cancer) and 0.075 nM with N87 (gastric cancer). The corresponding values for `CC[C@H](C)[C@@H]([C@@H](CC(=O)N1CCC[C@H]1[C@H](OC)[C@@H](C)C(=O)N[C@@H](Cc1ccccc1)c1nccs1)OC)N(C)C(=O)[C@@H](NC(=O)C1(N)CC1)C(C)C` [#51, N^2-[(1-aminocyclopropyl)carbonyl]-N-[(3R,4S,5S)-3-methoxy-1-{(2S)-2-[(1R,2R)-1-methoxy-2-methyl-3-oxo-3-{[(1S)-2-phenyl-1-(1,3-thiazol-2-yl)ethyl]amino}propyl]pyrrolidin-1-yl}-5-methyl-1-oxoheptan-4-yl]-N-methyl-L-valinamide] (H-[Ac3c]V[Dil][Dolaproine]-Doe) are under 0.599 nM and 3.66 nM. The corresponding values for `CC[C@H](C)[C@@H]([C@@H](CC(=O)N1CCC[C@H]1[C@H](OC)[C@@H](C)C(=O)N[C@@H](Cc1ccccc1)c1nccs1)OC)N(C)C(=O)[C@@H](NC(=O)C(C)(C)N)C(C)C` [#54, 2-methylalanyl-N-[(3R,4S,5S)-3-methoxy-1-{(2S)-2-[(1R,2R)-1-methoxy-2-methyl-3-oxo-3-{[(1S)-2-phenyl-1-(1,3-thiazol-2-yl)ethyl]amino}propyl]pyrrolidin-1-yl}-5-methyl-1-oxoheptan-4-yl]-N-methyl-L-valinamide] (H-[Aib]V[Dil][Dolaproine]-Doe) are under 0.133 nM and under 0.221 nM.

For the molecule `CC[C@H](C)[C@@H]([C@@H](CC(=O)N1CCC[C@H]1[C@H](OC)[C@@H](C)C(=O)NCC1(c2ccccc2)CC1)OC)N(C)C(=O)[C@@H](NC(=O)C(C)(C)N)C(C)C` [#60, 2-methylalanyl-N-[(3R,4S,5S)-3-methoxy-1-{(2S)-2-[(1R,2R)-1-methoxy-2-methyl-3-oxo-3-{[(1-phenylcyclopropyl)methyl]amino}propyl]pyrrolidin-1-yl}-5-methyl-1-oxoheptan-4-yl]-N-methyl-L-valinamide] (H-[Aib]V[Dil][Dolaproine]-X13), the IC50 in the experiment on BT474 (breast cancer) amounted to 0.524 nM; in experiment [1] it was 0.957 nM.

Take `CC[C@H](C)[C@@H]([C@@H](CC(=O)N1CCC[C@H]1[C@H](OC)[C@@H](C)C(=O)N[C@@H](Cc1ccccc1)C(=O)O)OC)N(C)C(=O)[C@@H](NC(=O)C(C)(C)N)C(C)C` [#69, 2-methylalanyl-N-[(3R,4S,5S)-1-{(2S)-2-[(1R,2R)-3-{[(1S)-1-carboxy-2-phenylethyl]amino}-1-methoxy-2-methyl-3-oxopropyl]pyrrolidin-1-yl}-3-methoxy-5-methyl-1-oxoheptan-4-yl]-N-methyl-L-valinamide] (H-[Aib]V[Dil][Dolaproine]F-OH): the IC50 with BT474 (breast cancer) stood at 80.2 nM; with N87 (gastric cancer), 66 nM. With `CC[C@H](C)[C@@H]([C@@H](CC(=O)N1CCC[C@H]1[C@H](OC)[C@@H](C)C(=O)N[C@@H](Cc1ccccc1)C(=O)OC)OC)N(C)C(=O)[C@@H](NC(=O)[C@]1(C)CCCN1)C(C)C` [#117, 2-methyl-L-prolyl-N-{(1S,2R)-4-{(2S)-2-[(1R,2R)-3-{[(1S)-1-benzyl-2-methoxy-2-oxoethyl]amino}-1-methoxy-2-methyl-3-oxopropyl]pyrrolidin-1-yl}-2-methoxy-1-[(1S)-1-methylpropyl]-4-oxobutyl}-N-methyl-L-valinamide] (H-[αMeP]V[Dil][Dolaproine]F-OMe), the IC50 is 0.096 nM with BT474 (breast cancer) and 0.118 nM in experiment [1]. As to `CC[C@H](C)[C@@H]([C@@H](CC(=O)N1CCC[C@H]1[C@H](OC)[C@@H](C)C(=O)N[C@@H](Cc1ccccc1)C(=O)OC)OC)N(C)C(=O)[C@@H](NC(=O)[C@@]1(C)CCCN1)C(C)C` [#131, 2-methyl-D-prolyl-N-[(3R,4S,5S)-3-methoxy-1-{(2S)-2-[(1R,2R)-1-methoxy-3-{[(2S)-1-methoxy-1-oxo-3-phenylpropan-2-yl]amino}-2-methyl-3-oxopropyl]pyrrolidin-1-yl}-5-methyl-1-oxoheptan-4-yl]-N-methyl-L-valinamide] (H-[d(αMeP)]V[Dil][Dolaproine]F-OMe), the concentration for half-maximal inhibition (IC50) with BT474 (breast cancer) was found to be 0.072 nM.

In the case of `CC[C@H](C)[C@@H]([C@@H](CC(=O)N1CCC[C@H]1[C@H](OC)[C@@H](C)C(=O)N[C@@H](Cc1ccccc1)C(N)=O)OC)N(C)C(=O)[C@@H](NC(=O)C(C)(C)NC)C(C)C` [#141, N,2-dimethylalanyl-N-{(1S,2R)-4-{(2S)-2-[(1R,2R)-3-{[(1S)-2-amino-1-benzyl-2-oxoethyl]amino}-1-methoxy-2-methyl-3-oxopropyl]pyrrolidin-1-yl}-2-methoxy-1-[(1S)-1-methylpropyl]-4-oxobutyl}-N-methyl-L-valinamide] (H-[NMeAib]V[Dil][Dolaproine]F-NH2), the IC50 in the experiment on BT474 (breast cancer) came out at 3.37 nM; with N87 (gastric cancer) it was 3.02 nM. `CCCNC(=O)[C@H](Cc1ccccc1)NC(=O)[C@H](C)[C@@H](OC)[C@@H]1CCCN1C(=O)C[C@@H](OC)[C@H]([C@@H](C)CC)N(C)C(=O)[C@@H](NC(=O)C(C)(C)NC)C(C)C` [#142, N,2-dimethylalanyl-N-{(1S,2R)-4-{(2S)-2-[(1R,2R)-3-{[(1S)-1-benzyl-2-oxo-2-(propylamino)ethyl]amino}-1-methoxy-2-methyl-3-oxopropyl]pyrrolidin-1-yl}-2-methoxy-1-[(1S)-1-methylpropyl]-4-oxobutyl}-N-methyl-L-valinamide] (H-[NMeAib]V[Dil][Dolaproine]F-NHPr): in the experiment with BT474 (breast cancer), the half-maximal inhibitory concentration (IC50) came to 0.279 nM. For the molecule `CC[C@H](C)[C@@H]([C@@H](CC(=O)N1CCC[C@H]1[C@H](OC)[C@@H](C)C(=O)N[C@@H](Cc1ccccc1)C(=O)OC)OC)N(C)C(=O)[C@@H](NC(=O)[C@](C)(N)C(C)C)C(C)C` [#146, 3-methyl-D-isovalyl-N-{(1S,2R)-4-{(2S)-2-[(1R,2R)-3-{[(1S)-1-benzyl-2-methoxy-2-oxoethyl]amino}-1-methoxy-2-methyl-3-oxopropyl]pyrrolidin-1-yl}-2-methoxy-1-[(1S)-1-methylpropyl]-4-oxobutyl}-N-methyl-L-valinamide] (H-[d(αMeV)]V[Dil][Dolaproine]F-OMe), the IC50 in the experiment on BT474 (breast cancer) was found to be 0.435 nM; in the experiment with N87 (gastric cancer), 0.195 nM.

`CC[C@H](C)[C@@H]([C@@H](CC(=O)N1CCC[C@H]1[C@H](OC)[C@@H](C)C(=O)N[C@@H](Cc1ccccc1)C(=O)OC)OC)N(C)C(=O)[C@@H](NC(=O)[C@@](C)(N)CC)C(C)C` [#148, L-isovalyl-N-{(1S,2R)-4-{(2S)-2-[(1R,2R)-3-{[(1S)-1-benzyl-2-methoxy-2-oxoethyl]amino}-1-methoxy-2-methyl-3-oxopropyl]pyrrolidin-1-yl}-2-methoxy-1-[(1S)-1-methylpropyl]-4-oxobutyl}-N-methyl-L-valinamide] (H-[Iva]V[Dil][Dolaproine]F-OMe): the IC50 in the experiment on BT474 (breast cancer) was determined as 0.429 nM. As for `CC[C@H](C)[C@@H]([C@@H](CC(=O)N1CCC[C@H]1[C@H](OC)[C@@H](C)C(=O)N[C@@H](Cc1ccccc1)c1nccs1)OC)N(C)C(=O)[C@@H](NC(=O)[C@@]1(C)CCCCN1)C(C)C` [#190, (2R)—N-[(2S)-1-{[(3R,4S,5S)-3-methoxy-1-{(2S)-2-[(1R,2R)-1-methoxy-2-methyl-3-oxo-3-{[(1S)-2-phenyl-1-(1,3-thiazol-2-yl)ethyl]amino}propyl]pyrrolidin-1-yl}-5-methyl-1-oxoheptan-4-yl](methyl)amino}-3-methyl-1-oxobutan-2-yl]-2-methylpiperidine-2-carboxamide], the half-inhibitory concentration (IC50) in the experiment on BT474 (breast cancer) was found to be 0.134 nM; with N87 (gastric cancer) it was 0.066 nM. For `CC[C@H](C)[C@@H]([C@@H](CC(=O)N1CCC[C@H]1[C@H](OC)[C@@H](C)C(=O)N[C@@H](C(=O)OC)C1(c2ccccc2)CC1)OC)N(C)C(=O)[C@@H](NC(=O)C(C)(C)N)C(C)C` [#222] (H-[Aib]V[Dil][Dolaproine][X2]-OMe), the IC50 in the experiment on BT474 (breast cancer) was determined as 0.158 nM; with N87 (gastric cancer), 0.352 nM. The corresponding values for `CC[C@H](C)[C@@H]([C@@H](CC(=O)N1CCC[C@H]1[C@H](OC)[C@@H](C)C(=O)N[C@H](C(=O)OC)[C@H]1Cc2ccccc21)OC)N(C)C(=O)[C@@H](NC(=O)C(C)(C)N)C(C)C` [#225] (H-[Aib]V[Dil][Dolaproine][X11]-OMe) are 3.45 nM and 10.5 nM. The corresponding values for `CC[C@H](C)[C@@H]([C@@H](CC(=O)N1CCC[C@H]1[C@H](OC)[C@@H](C)C(=O)N[C@@H](Cc1ccccc1)C(=O)OC)OC)N(C)C(=O)[C@@H](NC(=O)C(C)(C)N(C)C)C(C)C` [#228] (X4-V[Dil][Dolaproine]F-OMe) are 0.105 nM and 0.09 nM. Regarding `C=CCOC(=O)[C@H](Cc1ccccc1)NC(=O)[C@H](C)[C@@H](OC)[C@@H]1CCCN1C(=O)C[C@@H](OC)[C@H]([C@@H](C)CC)N(C)C(=O)[C@@H](NC(=O)C(C)(C)NC)C(C)C` [#238] (H-[NMeAib]V[Dil][Dolaproine]F-OAll), the IC50 was 0.139 nM in the experiment on BT474 (breast cancer) and 0.077 nM in the experiment with N87 (gastric cancer).

With `CC[C@H](C)[C@@H]([C@@H](CC(=O)N1CCC[C@H]1[C@H](OC)[C@@H](C)C(=O)N[C@@H](Cc1ccc(O)cc1)C(=O)OC)OC)N(C)C(=O)[C@@H](NC(=O)C(C)(C)NC)C(C)C` [#243] (H-[NMeAib]V[Dil][Dolaproine]Y-OMe), the IC50 in experiment [1] was 1.28 nM; in the experiment on N87 (gastric cancer) it was 1.3 nM. Turning to `CC[C@H](C)[C@@H]([C@@H](CC(=O)N1CCC[C@H]1[C@H](OC)[C@@H](C)C(=O)NCCC1C=CC=CC=C1)OC)N(C)C(=O)[C@@H](NC(=O)[C@@]1(C)CCCN1)C(C)C` [#247] (H-[d(αMeP)]V[Dil][Dolaproine]-X8), the IC50 in the experiment with BT474 (breast cancer) worked out at 1.01 nM; in the experiment on N87 (gastric cancer), 2.06 nM.
